In ChEMBL document CHEMBL2321655, “Insulin-like growth factor-1 receptor inhibitors: a potential cancer treatment: patent highlight” (ACS Med Chem Lett, 2013):

Tests used:
HT-29 = test: Antiproliferative activity against human HT-29 cells; format: functional, cell-based
MCF7 = test: Antiproliferative activity against human MCF7 cells; format: functional, cell-based

| Structure (SMILES) | IC50 (HT-29) [nM] | IC50 (MCF7) [nM] |
| --- | --- | --- |
| NC(=O)c1[nH]c2c(N)cc(Cl)cc2c1S(=O)(=O)N1CCOC(COc2ccccc2)C1 (stereo not drawn) | > 10000 | 2200 |
| CCOC(=O)N1CCC(Nc2cc(Cl)cc3c(S(=O)(=O)N4CCOC(COc5ccccc5)C4)c(C(N)=O)[nH]c23)CC1 (stereo not drawn) | 1700 | 900 |
| NC(=O)c1[nH]c2c(NC3CCOCC3)cc(Cl)cc2c1S(=O)(=O)N1CCOC(COc2ccccc2)C1 (stereo not drawn) | 2800 | 800 |
| N#CCCNc1cc(Cl)cc2c(S(=O)(=O)N3CCOC(COc4ccccc4)C3)c(C(N)=O)[nH]c12 (stereo not drawn) | 5300 | < 1000 |
